Patent US9669028B2, “Substituted 5-(pyrazin-2-yl)-1H-pyrazolo [3, 4-B] pyridine and pyrazolo [3, 4-B] pyridine derivatives as protein kinase inhibitors” (Arrien Pharmaceuticals LLC, priority 2011, dated 2017)
Values after ≈ are worked out from the molar mass of the structure shown.

Legend:
DYRK1A = DYRK1A (Homo sapiens (Human), UniProt Q13627); assay: In vitro DYRK1A inhibition assay; type: biochemical
recombinant human MAO-B = recombinant human MAO-B (Homo sapiens (Human), UniProt P27338); assay: Inhibition of monoamine oxidase MAO-B; type: biochemical; conditions: kynuramine 50 μM, 25 min at 37° C.
Description: (§1) Test compounds (0.01-100 μM) final DMSO concentration 0.1%, were incubated with recombinant human MAO-A (2 μg/mL) or MAO-B (2 μg/mL) in the presence of the probe substrate kynuramine (50 μM) for 25 min at 37° C. […] The reactions were terminated by addition of methanol containing internal standard for analytical quantification. The quenched samples were incubated at 4° C. for 10 min and centrifuged at 4° C. for 10 min. The supernatant was removed and analyzed by LC-MS/MS for the probe metabolite 4-hydroxyquinoline.

[1] = test system: 299 protein kinases+17 additional preview kinases; assay: Protein Kinase Selectivity Profiler; type: biochemical, human; conditions: ABL1 T315I, ALK2, ARK5, Aurora A/B/C, BRAF, C-KIT, CLK1-4, CSF1R, DYRK1A-4, FLT3, GSK3β, JAK1-3, KDR, LCK ... TRKA-C; single dose; 10 μM ATP
Description: In vitro profiling of the 317 member kinase panel was performed at Reaction Biology Corporation using the “HotSpot” assay platform. Briefly, specific kinase/substrate pairs along with required cofactors were prepared in reaction buffer; 20 mM Hepes (pH 7.5), 10 mM MgCl2, 1 mM EGTA, 0.02% Brij35, 0.02 mg/ml BSA, 0.1 mM Na3VO4, 2 mM DTT, 1% DMSO. Compounds were delivered into the reaction, followed ˜20 min later by addition of a mixture of ATP (Sigma) and 33P ATP (PerkinElmer) to a final concentration of 10 μM. Reactions were carried out at 25° C. for 120 min, followed by spotting of the reactions onto P81 ion exchange filter paper (Whatman). Unbound phosphate was removed by extensive washing of filters in 0.75% phosphoric acid. […] IC50 values and curve fits were obtained using Prism (GraphPad Software). Kinome tree representations were prepared using Kinome Mapper (http://www.reactionbiology.com/apps/kinome/mapper/Launch Kinome.htm). Specifically for the LRRK2 enzyme the substrate LRRKtide (gene bank and protein access numbers NP_940980.2 Q5S007) and clone aa 970-2527 expressed in baculovirus in insect cells with N-terminal GST tag was employed in the study protocol. In the case of DYRK1A (SEQ ID NO 16) the substrate casein (gene bank and protein access numbers NP_001387 Q13627) full length clone expressed in insect with n-terminal tag was used.
A control compound was tested in 10-dose IC50 mode with 3-fold serial dilution starting at 20 μM. Reactions were carried out at 10 μM ATP. Data pages include raw data, % Enzyme activity (relative to DMSO controls), and curve fits.

[2] = test system: Rat hepatoma (H4IIE) cell line; assay: In vitro toxicology, general cytotoxicity; type: cell-based; conditions: rat, 24 h
Description: Cells were seeded into 96-well plates and cultured in medium containing 20% bovine serum. […] General cytotoxicity was evaluated by monitoring membrane integrity (MBR, cell supernatant), cell mass (PI) and mitochondrial function (cellular ATP levels). Rotenone was included as a positive control because it produces measurable effects in all three assays. DMSO at 0.5% in medium was included as a negative control. Three wells per exposure concentration were used in each assay. Results are summarized in Table 8 and are expressed as percent of control, with control values set at 100%. […] Test compounds 13 and 13 HCl were rank-ordered from most to least toxic based on individual membrane integrity and ATP responses as well as resultant TC50 values.
Test compounds 13 and 13 HCl were rank-ordered from highest to lowest probability of producing toxicity based first on membrane toxicity, then on ATP, and finally on cell mass (PI). It is important to note that within a given grouping compounds may be classified as to their primary effect being either cytotoxic, cytostatic, or reducing mitochondrial function. In general, compound responses above 80% of vehicle control are considered to be low-to-no effect, moderates generally rank 80% to 50% of vehicle control, and those compounds that cross the 50% mark are considered to have higher probability of toxicity.

Rat pharmacokinetics = conditions: male, Sprague Dawley
Source text: To investigate the pharmacokinetic profiles of test compound following intravenous bolus administration and oral gavage in male Sprague Dawley rats.

LRRK2 G2019S = LRRK2 G2019S (Homo sapiens (Human), UniProt Q5S007, G2019S); assay: LRRK2 G2019S Kinase Assay; type: biochemical; conditions: 10 μM ATP
Procedure, shortened: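 Radiometric filter-binding assay: enzyme, substrate peptide and compound were mixed on ice, ATP added, then incubated 20 min at 30° C. Reaction was stopped with phosphoric acid and the peptide captured on filters. Incorporated radioactivity was read by scintillation counting; staurosporine served as reference.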

recombinant human MAO-A = recombinant human MAO-A (Homo sapiens (Human), UniProt P21397); assay: Inhibition of monoamine oxidase MAO-A; type: biochemical; conditions: kynuramine 50 μM, 25 min at 37° C.
Description: as §1

LRRK2 = LRRK2 (Homo sapiens (Human), UniProt Q5S007); assay: LRRK2 Kinase Assay; type: biochemical; conditions: 10 μM ATP
Procedure, shortened: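 Radiometric filter-binding assay: compound pre-incubated ~20 min with kinase and substrate peptide in 20 mM HEPES pH 7.5, 10 mM MgCl2, 1% DMSO, then 10 μM ATP with 33P-ATP added.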

[3] = test system: MPTP-injected C57 black mice; assay: MPTP mouse model of Parkinson's disease, oral pre-treatment; type: in vivo
[4] = orally administered, pre-treatment

recombinant human MAO-A, sequence (P21397 whole entry): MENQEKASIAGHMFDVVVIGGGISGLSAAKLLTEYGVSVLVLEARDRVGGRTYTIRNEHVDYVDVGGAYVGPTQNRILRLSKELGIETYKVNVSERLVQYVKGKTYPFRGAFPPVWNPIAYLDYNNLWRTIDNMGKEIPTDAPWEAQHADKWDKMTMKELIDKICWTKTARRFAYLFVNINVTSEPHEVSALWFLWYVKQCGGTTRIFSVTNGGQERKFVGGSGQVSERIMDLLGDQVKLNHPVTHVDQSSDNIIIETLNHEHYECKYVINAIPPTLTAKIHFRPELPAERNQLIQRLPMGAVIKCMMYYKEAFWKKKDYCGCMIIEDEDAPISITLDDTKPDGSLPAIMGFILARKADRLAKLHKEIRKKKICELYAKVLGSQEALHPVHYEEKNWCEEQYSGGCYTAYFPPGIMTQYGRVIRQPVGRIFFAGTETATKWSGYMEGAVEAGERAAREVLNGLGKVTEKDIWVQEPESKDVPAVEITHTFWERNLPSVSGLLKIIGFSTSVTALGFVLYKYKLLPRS
LRRK2, sequence (Q5S007 970-2527): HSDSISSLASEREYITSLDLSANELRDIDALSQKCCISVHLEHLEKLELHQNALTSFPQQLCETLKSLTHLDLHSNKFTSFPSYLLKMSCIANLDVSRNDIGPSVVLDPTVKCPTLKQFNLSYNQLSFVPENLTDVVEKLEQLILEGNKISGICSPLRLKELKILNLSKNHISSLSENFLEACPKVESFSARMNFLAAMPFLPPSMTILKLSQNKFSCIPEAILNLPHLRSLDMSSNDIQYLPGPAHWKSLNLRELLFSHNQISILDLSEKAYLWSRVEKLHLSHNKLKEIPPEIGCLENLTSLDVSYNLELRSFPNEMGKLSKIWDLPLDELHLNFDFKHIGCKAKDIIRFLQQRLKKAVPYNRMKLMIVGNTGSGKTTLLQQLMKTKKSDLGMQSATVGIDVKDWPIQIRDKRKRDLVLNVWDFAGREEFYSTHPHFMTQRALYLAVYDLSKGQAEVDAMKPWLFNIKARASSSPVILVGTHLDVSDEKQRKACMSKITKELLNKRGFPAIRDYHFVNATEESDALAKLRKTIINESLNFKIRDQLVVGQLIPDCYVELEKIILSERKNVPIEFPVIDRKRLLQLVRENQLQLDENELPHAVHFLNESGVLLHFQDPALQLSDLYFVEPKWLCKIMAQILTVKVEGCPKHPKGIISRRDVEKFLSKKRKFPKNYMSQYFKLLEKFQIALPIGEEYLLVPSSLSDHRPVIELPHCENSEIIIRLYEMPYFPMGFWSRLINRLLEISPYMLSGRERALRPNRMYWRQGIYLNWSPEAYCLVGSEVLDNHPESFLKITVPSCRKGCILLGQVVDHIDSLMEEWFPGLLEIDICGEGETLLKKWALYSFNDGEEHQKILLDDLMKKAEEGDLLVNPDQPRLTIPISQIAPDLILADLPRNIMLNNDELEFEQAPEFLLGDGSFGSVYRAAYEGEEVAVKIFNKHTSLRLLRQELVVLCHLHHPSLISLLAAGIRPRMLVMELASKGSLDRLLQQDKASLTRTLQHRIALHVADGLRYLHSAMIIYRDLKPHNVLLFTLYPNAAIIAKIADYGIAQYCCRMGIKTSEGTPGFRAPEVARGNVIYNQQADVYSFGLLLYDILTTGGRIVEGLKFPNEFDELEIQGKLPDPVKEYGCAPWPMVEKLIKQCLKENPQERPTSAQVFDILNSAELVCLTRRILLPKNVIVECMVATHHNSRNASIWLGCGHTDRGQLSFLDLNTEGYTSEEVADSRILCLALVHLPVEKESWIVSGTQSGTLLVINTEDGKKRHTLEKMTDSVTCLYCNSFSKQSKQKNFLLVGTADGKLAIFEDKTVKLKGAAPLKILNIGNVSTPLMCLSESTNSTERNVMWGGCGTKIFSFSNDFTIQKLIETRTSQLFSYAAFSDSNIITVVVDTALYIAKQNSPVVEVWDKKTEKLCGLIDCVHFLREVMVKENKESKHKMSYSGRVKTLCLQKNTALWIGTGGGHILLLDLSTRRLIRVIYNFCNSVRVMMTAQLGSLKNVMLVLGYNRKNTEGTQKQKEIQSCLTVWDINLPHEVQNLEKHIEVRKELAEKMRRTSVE
recombinant human MAO-B, sequence (P27338 whole entry): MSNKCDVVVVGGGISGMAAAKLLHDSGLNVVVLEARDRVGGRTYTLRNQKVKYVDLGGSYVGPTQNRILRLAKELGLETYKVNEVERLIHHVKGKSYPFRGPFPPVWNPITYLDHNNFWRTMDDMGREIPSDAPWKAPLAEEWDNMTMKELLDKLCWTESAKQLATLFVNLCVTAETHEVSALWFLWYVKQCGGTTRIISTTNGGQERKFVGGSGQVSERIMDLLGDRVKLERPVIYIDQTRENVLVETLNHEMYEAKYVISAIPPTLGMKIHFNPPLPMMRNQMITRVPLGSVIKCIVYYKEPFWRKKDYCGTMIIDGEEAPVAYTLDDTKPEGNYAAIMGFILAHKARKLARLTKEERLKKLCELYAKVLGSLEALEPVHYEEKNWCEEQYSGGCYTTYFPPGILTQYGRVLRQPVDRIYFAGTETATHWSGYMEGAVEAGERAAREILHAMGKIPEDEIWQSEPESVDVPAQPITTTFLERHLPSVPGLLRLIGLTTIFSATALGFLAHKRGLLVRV
LRRK2 G2019S, sequence (Q5S007 970-2527 G2019S): as the sequence (Q5S007 970-2527) above, with G1050S counted along it

Cc1n[nH]c2ncc(-c3cncc(NC4CCN(C)CC4)n3)cc12 [Compound 13, 6-(3methyl-1H-pyrazolo[3,4-b]pyridine-5yl)-N-(1-methylpiperidine-4yl)pyrazin-2-amine]
IC50 (DYRK1A): < 500 nM | IC50 (recombinant human MAO-B): > 100 µM | activity against kinases in broader scope, relative to DMSO control [1]: 5-15% | ATP TC50 [2]: >50 µM | Cell Mass TC50 [2]: >50 µM | Mem Tox TC50 [2]: >50 µM | ATP % Control ([2]; 5 μM): 99% | Cell Mass % Control ([2]; 5 μM): 93% | Mem Tox % Control ([2]; 5 μM): 100% | ATP % Control ([2]; 10 μM): 99% | Cell Mass % Control ([2]; 10 μM): 88% | Mem Tox % Control ([2]; 10 μM): 96% | ATP % Control ([2]; 50 μM): 74% | Cell Mass % Control ([2]; 50 μM): 71% | Mem Tox % Control ([2]; 50 μM): 94% | AUC(0-t) (Rat pharmacokinetics; in vivo, iv, 5 mg/kg): 1020 ng·h/mL | Vd (Rat pharmacokinetics; in vivo, iv, 5 mg/kg): 15.2 L/kg | clearance (Rat pharmacokinetics; in vivo, iv, 5 mg/kg): 123 mL/min/kg | AUC(0-t) (Rat pharmacokinetics; in vivo, po, 30 mg/kg): 1040 ng·h/mL | Cmax (Rat pharmacokinetics; in vivo, po, 30 mg/kg): 133 ng/mL | half-life (Rat pharmacokinetics; rat, iv, 5 mg/kg): 136 min | F (Rat pharmacokinetics; rat, po, 30 mg/kg): 24% | Tmax (Rat pharmacokinetics; rat, po, 30 mg/kg): 6.7 h | IC50 (LRRK2 G2019S): < 500 nM | IC50 (recombinant human MAO-A): > 100 µM | solubility (physchem): 50 µM (≈ 16.2 µg/mL) | IC50 (LRRK2): < 500 nM | protection against MPTP-induced TH cell loss and dopaminergic degeneration in substantia nigra and striatum ([3]; 10 mg/kg and 30 mg/kg oral): dose-dependent protection | locomotor activities in MPTP-injected mice [3, 4]: Improve Locomotor Activities | striatal dopamine levels in MPTP treated mice [3, 4]: Restore Striatal Dopamine Levels
